Test results reported in patent US7175872B2, “Pyridinium-Betain compounds for use as taste modulators” (Nestec S.A., priority 2002, dated 2007).
Where a name gives a salt, the structure may show the parent alone.

Experiments:
Assay type in all cases: in vivo
[1] = test system: sweet taste of sucrose; assay: Sweet taste detection threshold of sucrose/Pyridinium-Betaine mixtures (triangle test, sensory panel); design: key to Threshold decrease: fold decrease of sweet threshold vs pure sucrose
Protocol: (§1) • Sensory panel training: […] Sensory analyses were performed in a sensory panel room at 22-25° C. on three different sessions. • Taste thresholds: The taste thresholds of the tastants or mixtures containing basic tastants plus Pyridinium-Betains were determined in a triangle test using Evian® mineral water as the solvent at a defined pH ([…] and H.-D. Belitz, Z. Lebensm. Unters. Forsch. 1975, 159, 65-72). The samples (3 mL) were presented in order of increasing concentrations (serial 1:1 dilutions). The threshold values evaluated in two different sessions were averaged. […] The taste intensities of aqueous (Evian®) solutions containing a basic tastant, such as glucose and MSG, for example, in constant concentrations and the compounds of the general formula (A), for example […], in various concentrations were compared with those of a solution containing the basic tastant only. To achieve this, triangle tests were performed with two glass vials containing the basic tastant in constant concentrations, and one glass vial containing a stepwise 1:1-diluted mixture of basic […]. […] The relative taste strength (taste enhancing factor) of a mixture containing the basic […] was related to the basic tastants glucose, MSG, or other tastants, respectively, as standard substances, and was determined as the ratio of the concentrations c of iso-intensely tasting solutions of the basic tastant, such as glucose (glc), and the mixture containing tastant plus Pyridinium-Betain, […])=[…] This taste enhancing effect is illustrated in examples. The sweet taste thresholds of equimolar mixtures of sweet tasting compounds and various Pyridinium-Betaines were determined by a triangle test using EVIAN® mineral water as the solvent. The sensorial evaluations were performed at different pH values. The equimolar mixture of […] and sucrose at pH 7.0 was evaluated with a 4-fold lower sweet threshold concentration than pure sucrose (Table 1).

[2] = test system: umami taste of MSG; assay: Umami taste detection threshold of MSG/Pyridinium-Betaine mixtures (triangle test, sensory panel)
Protocol: (§2) • Sensory panel training: […] Sensory analyses were performed in a sensory panel room at 22-25° C. on three different sessions. • Taste thresholds: The taste thresholds of the tastants or mixtures containing basic tastants plus Pyridinium-Betains were determined in a triangle test using Evian® mineral water as the solvent at a defined pH ([…] and H.-D. Belitz, Z. Lebensm. Unters. Forsch. 1975, 159, 65-72). The samples (3 mL) were presented in order of increasing concentrations (serial 1:1 dilutions). The threshold values evaluated in two different sessions were averaged. […] The taste intensities of aqueous (Evian®) solutions containing a basic tastant, such as glucose and MSG, for example, in constant concentrations and the compounds of the general formula (A), for example […], in various concentrations were compared with those of a solution containing the basic tastant only. To achieve this, triangle tests were performed with two glass vials containing the basic tastant in constant concentrations, and one glass vial containing a stepwise 1:1-diluted mixture of basic […]. […] The relative taste strength (taste enhancing factor) of a mixture containing the basic […] was related to the basic tastants glucose, MSG, or other tastants, respectively, as standard substances, and was determined as the ratio of the concentrations c of iso-intensely tasting solutions of the basic tastant, such as glucose (glc), and the mixture containing tastant plus Pyridinium-Betain, […])=[…] […] This taste enhancing effect is illustrated in examples. Pyridinium-Betaines not only enhance the sweet taste perception, but also the umami taste.

[3] = test system: salty taste of NaCl; assay: Salt taste detection threshold of NaCl/Pyridinium-Betaine mixtures (triangle test, sensory panel)
Protocol: • Sensory panel training: […] Sensory analyses were performed in a sensory panel room at 22-25° C. on three different sessions. • Taste thresholds: The taste thresholds of the tastants or mixtures containing basic tastants plus Pyridinium-Betains were determined in a triangle test using Evian® mineral water as the solvent at a defined pH ([…] and H.-D. Belitz, Z. Lebensm. Unters. Forsch. 1975, 159, 65-72). The samples (3 mL) were presented in order of increasing concentrations (serial 1:1 dilutions). The threshold values evaluated in two different sessions were averaged. […] The taste intensities of aqueous (Evian®) solutions containing a basic tastant, such as glucose and MSG, for example, in constant concentrations and the compounds of the general formula (A), for example […], in various concentrations were compared with those of a solution containing the basic tastant only. […] The relative taste strength (taste enhancing factor) of a mixture containing the basic […] was related to the basic tastants glucose, MSG, or other tastants, respectively, as standard substances, and was determined as the ratio of the concentrations c of iso-intensely tasting solutions of the basic tastant, such as glucose (glc), and the mixture containing tastant plus Pyridinium-Betain, […])=[…] […] This taste enhancing effect is illustrated in examples.

[4] = test system: sweet taste of glucose; assay: Sweet taste detection threshold of glucose/Pyridinium-Betaine mixtures (triangle test, sensory panel); conditions: equimolar mixture with glucose, pH 7.0; for Threshold decrease: vs glucose in water 50.0 mmol/L
Protocol: as §1, with “1). […] is able to reduce the sweet threshold of glucose 16-fold at pH 7.0 and pH 9.0, whereas at pH 5.0 a gain the sweet taste perception […] (Table 2). […] Using the dipeptide derivative (S)-[…] as a taste-enhancer leads to a 16-fold threshold reduction compared to glucose.” for “1).”

[5] = test system: sweet taste of L-alanine; assay: Sweet taste detection threshold of L-alanine/Pyridinium-Betaine mixtures (triangle test, sensory panel); conditions: L-alanine alone
Protocol: as §2, with “Besides the two carbohydrates,” for “Pyridinium-Betaines not only enhance”, “sweet amino acid L-alanine was also tested with […]. Again, the best impact on sweet” for “sweet”, “perception was found for” for “perception, but also”, “mixture at pH 9.0, resulting in an 8-fold lower threshold.” for “umami taste.”

[6] = test system: bitter taste of caffeine; assay: Bitter intensity ranking with Glypyridaine: caffeine; conditions: no Glypyridaine, scale 0-5
Excerpt: Instead of working with low concentrated solutions at the bitter threshold, another series of experiments use carried out using more concentrated solutions of various bitter compounds to evaluate the bitter-blocking properties of Pyridinium-Betaines based on non-chiral amino acids. […] The bitter-reducing effect was most pronounced with L-Phenylalanine, the dipeptide H-Gly-Leu-OH, and caffeine.

[7] = sweet, vs sucrose alone (Table 10)
[8] = equimolar mixture with MSG, pH 7.0
[9] = equimolar mixture with MSG, pH 7.0, vs MSG in water 1.5 mmol/L
[10] = umami, MSG and mixtures with Alapyridaine enantiomers (Table 9), pH not stated
[11] = equimolar mixture with sucrose, pH 7.0
[12] = equimolar mixture with sucrose, pH 9.0
[13] = equimolar mixture with sucrose, pH 9.0, vs sucrose in water 12.5 mmol/L

In the case of `C[C@H](C(=O)[O-])[n+]1cc(O)ccc1CO` [(−)-(R)-Alapyridaine, (R)-N-(1-carboxyethyl)-3-hydroxy-6-hydroxymethyl-pyridinium inner salt], the Threshold decrease [1, 7] is reported as “does not alter the sweet taste perception of sucrose”, the Threshold decrease ([2]; umami, vs MSG alone (Table 9)) is reported as “does not have any taste enhancing impact” and the Threshold decrease ([3]; salty, vs NaCl alone (Table 11)) is reported as “did not alter the taste of the aqueous salt solution”.
For `O=C(C[n+]1cc(O)ccc1CO)N[C@@H](Cc1ccccc1)C(=O)[O-]` [(S)-GlyPhepyridaine, (S)-N-[N(1-carboxy-2-phenyl-ethyl)-carboxamido-methyl]-3-hydroxy-6-hydroxymethyl-pyridinium inner salt], the Sweet detection threshold [4] was 3.0 mmol/kg water, the Taste quality [4] was “sweet” and the Threshold decrease [4] was 16. For the same compound, the Taste quality [2, 8] was “umami”, the Umami detection threshold [2, 8] was 0.2 mmol/kg water and the Threshold decrease [2, 9] was 8.0.
With `C[C@@H](C(=O)[O-])[n+]1cc(O)ccc1CO` [(+)-(S)-Alapyridaine, (S)-N-(1-carboxyethyl)-3-hydroxy-6-hydroxymethyl-pyridinium inner salt] the Threshold decrease [1, 7] was 8 and the Detection threshold [2, 10] was 0.2 mmol/kg water.
In the case of `N[C@@H](CCC(=O)O)C(=O)[O-].[Na+]` [MSG, monosodium glutamate, reference compound], the “threshold of MSG in water” value ([2]; MSG alone) is reported as “^aThe threshold of MSG in water is 1.5 mmol/L”, the Taste quality ([2]; MSG and mixtures with Alapyridaine enantiomers (Table 9), pH not stated) is reported as “umami” and the Detection threshold [2, 10] is reported as 1.5 mmol/kg water.
For `O=C(O)CCC(C(=O)[O-])[n+]1cc(O)ccc1CO` (stereo not shown) [Glupyridaine, N-(1,3-dicarboxypropyl)-3-hydroxy-6-hydroxymethyl-pyridinium inner salt], the Sweet detection threshold [1, 11] was 12.0 mmol/kg water, the Taste quality [1, 11] was “sweet” and the Sweet detection threshold [1, 12] was 6.0 mmol/kg water. For the same compound, the Taste quality [1, 12] was “sweet”, the Threshold decrease [1, 13] was 2 and the Taste quality [2, 8] was “umami”. For the same compound, the Umami detection threshold [2, 8] was 0.4 mmol/kg water and the Threshold decrease [2, 9] was 4.0.
With `OC[C@H]1O[C@@](CO)(O[C@H]2O[C@H](CO)[C@@H](O)[C@H](O)[C@H]2O)[C@@H](O)[C@@H]1O` [Sucrose, sucrose, reference compound] the “threshold of sucrose in water” value ([1]; sucrose alone) was “^aThe threshold of sucrose in water is 12.5 mmol/L”, the Taste quality ([1]; sucrose and mixtures with Alapyridaine enantiomers (Table 10), pH not stated) was “sweet” and the Detection threshold ([1]; sweet, sucrose and mixtures with Alapyridaine enantiomers (Table 10), pH not stated) was 12.5 mmol/kg water.
With `O=C([O-])[C@H](Cc1ccccc1)[n+]1cc(O)ccc1CO` [Phepyridaine] the Sweet detection threshold [1, 11] was 3.0 mmol/kg water, the Taste quality [1, 11] was “sweet” and the Threshold decrease ([1]; equimolar mixture with sucrose, pH 7.0, vs sucrose in water 12.5 mmol/L) was 4.0. For the same compound, the Sweet detection threshold [1, 12] was 1.5 mmol/kg water, the Taste quality [1, 12] was “sweet” and the Threshold decrease [1, 13] was 8.0. For the same compound, the “concentration above which a rubber-like off-taste is imparted” value ([1]; mixture with sucrose) was “above 3 mmol/kg”, the “concentration above which the sweetness is associated with a rubber-like taste” value ([1]; mixture with sucrose) was “^bThe sweetness is associated with a rubber-like taste in concentrations higher than 3 mmol/L” and the Sweet detection threshold [4] was 3.0 mmol/kg water. For the same compound, the Taste quality [4] was “sweet”, the Threshold decrease [4] was 16.0 and the Taste quality [2, 8] was “umami”. For the same compound, the Umami detection threshold [2, 8] was 0.4 mmol/kg water, the Threshold decrease [2, 9] was 4.0 and the Salt detection threshold ([3]; mixture with NaCl, pH 7.0) was 2.0 mmol/kg water. The Taste quality ([3]; mixture with NaCl, pH 7.0) was “salty” and the Threshold decrease ([3]; mixture with NaCl, pH 7.0, vs NaCl in water 10.0 mmol/L) was 5.0.
`C[C@H](N)C(=O)O` [L-alanine, reference compound] was tested, and the “threshold of L-alanine in water” value [5] was “^aThe threshold of L-alanine in water is 12.5 mmol/L”.
`Cn1c(=O)c2c(ncn2C)n(C)c1=O` [Caffeine, reference compound] gave a Bitter taste intensity ([6]; Caffeine 4 mmol/L water) of 3, a Bitter taste intensity ([6]; Caffeine 8 mmol/L water) of 4.5 and a Bitter taste intensity ([6]; Caffeine 16 mmol/L water) of 5.
